Source: patent US20250051355A1, “COMPOUNDS, COMPOSITIONS, AND METHODS” (ACONCAGUA BIO, INC., priority 2023, published 2025)

What was measured:
[1] = target: human calcitonin receptor (CTR) and RAMP3 (AMY3) (Homo sapiens, UniProt O60896+P30988); assay: Amylin Receptor cAMP Assay I; format: cell-based; details: COS-7/AMY3 cells, cAMP Hi-range Kit, read-out: Amylin Receptor cAMP Stimulation Activity: EC50
From the text: Amylin Receptor cAMP Assay I
AMYRs are heterodimers of the class B calcitonin (CT) G-protein-coupled receptor (CTR) and receptor activity-modifying proteins (RAMPs). All three RAMPs can interact with the CTR and form AMY1, AMY2, AMY3 with RAMP1, RAMP2 and RAMP3, respectively. Like other class B1 GPCRs, the CT receptor family is canonically coupled to Gs-mediated cAMP production, and measurement of cAMP accumulation has been the primary assay used to determine peptide selectivity and potency.
To optimize functional activity directed toward Gas coupling, COS-7 cells were stably transfected with human calcitonin receptor (CTR) and RAMP3, simultaneously. 100×concentration of compound working solutions were prepared (Agilent Technologies Bravo) with 4-fold serial dilution in 384-well Echo LDV plate (Labcyte, Cat #LP-0200). 100 nL/well 100× concentration of compound working solutions were moved to 384-well white low volume plate (Greiner, Cat #784075) using Labcyte ECHO550. 1×10^5 cells/mL COS-7/CTR or COS-7/AMY3 (HD Biosciences) cell suspensions prepared with assay buffer [DPBS containing 0.5 mM IBMX (Sigma, Cat #15879) and 0.1% BSA (GENVIEW, Cat #FAO16-100 g)], 10 μL cell suspensions were added to each well of previous generated assay plate which already contains 100 nL compound at 100× concentration using ThermoFisher Multidrop Combi (1000 cells/well). Seal the plate and incubate at 37° C. with 5% CO2 for 30 min.
After incubation, the cAMP assay signal was generated using cAMP Hi-range Kit (Cisbio). 5 μL cAMP-d2 working solution was added to each well, followed by 5 μL Anti-cAMP antibody-cryptate working solution which was added to each well using ThermoFisher Multidrop Combi. The samples were then incubated at room temperature for 1 hour protected from light. the fluorescence was read at 665 and 615 nm with Reader PerkinElmer EnVision.

[2] = target: T1, human calcitonin receptor (CTR) (Homo sapiens, UniProt P30988); assay: Calcitonin receptor (CTR) cAMP Assay; format: cell-based; details: COS7-human CTR Clone #2 cells, cAMP dynamic 2 kit; read-out: Calcitonin Receptor cAMP Stimulation Activity: EC50
T1 construct: expressed in transfected cells; host or cells: COS-7 (COS7-human CTR Clone #2)
T1 sequence (P30988 25-474): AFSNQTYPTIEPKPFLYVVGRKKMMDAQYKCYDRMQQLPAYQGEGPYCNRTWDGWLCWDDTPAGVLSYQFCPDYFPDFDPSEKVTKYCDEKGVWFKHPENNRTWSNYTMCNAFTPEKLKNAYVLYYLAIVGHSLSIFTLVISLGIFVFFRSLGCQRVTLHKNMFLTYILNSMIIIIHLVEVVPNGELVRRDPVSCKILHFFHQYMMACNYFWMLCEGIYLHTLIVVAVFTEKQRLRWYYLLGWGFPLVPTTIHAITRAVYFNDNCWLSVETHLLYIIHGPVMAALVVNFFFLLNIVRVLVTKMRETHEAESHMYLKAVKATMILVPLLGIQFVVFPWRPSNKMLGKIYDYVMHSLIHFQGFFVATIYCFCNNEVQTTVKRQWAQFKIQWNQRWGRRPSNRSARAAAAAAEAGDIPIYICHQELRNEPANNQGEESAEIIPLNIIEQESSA
Procedure, shortened: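 COS-7 cells stably expressing human CTR (2000 cells/well) treated with 4-fold serially diluted compounds in HBSS/20 mM HEPES/0.5 mM IBMX/0.1% casein, 30 min at 37° C. cAMP quantified by HTRF (cAMP-d2 plus anti-cAMP cryptate, 1 h RT), fluorescence read at 665 and 615 nm.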

Sequence of human calcitonin receptor (CTR) and RAMP3 (AMY3) (O60896 24-148, one chain of several): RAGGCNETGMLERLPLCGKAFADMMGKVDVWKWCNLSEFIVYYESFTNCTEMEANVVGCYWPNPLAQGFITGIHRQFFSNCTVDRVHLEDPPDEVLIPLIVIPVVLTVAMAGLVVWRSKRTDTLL

Structure (SMILES)	EC50 [1] [nM]	EC50 [2] [nM]
Cc1nnc(-c2c(CCc3ccc(F)cc3)nc3c(c2-c2ccc(C(=O)NCc4ccc(F)c(F)c4)s2)C(=O)N[C@H]3C(C)C)o1 [Compound 1, N-(3,4-difluorophenyl)methyl-5-{(S)-5-[2-(p-fluorophenyl)ethyl]-3-isopropyl-6-(5-methyl-1,3,4-oxadiazol-2-yl)-1-oxo-2,4-diaza-7-indanyl)-2-thenamide]	43.9	3.7
Cc1nnc(-c2c(CCc3ccc(F)cc3)nc3c(c2-c2ccc(C(=O)NCc4ccc(F)c(F)c4)s2)C(=O)N[C@@H]3C(C)C)o1 [Compound 2, N-(3,4-difluorophenyl)methyl-5-((R)-5-[2-(p-fluorophenyl)ethyl]-3-isopropyl-6-(5-methyl-1,3,4-oxadiazol-2-yl)-1-oxo-2,4-diaza-7-indanyl}-2-thenamide]	33.3	7
Cc1nnc(-c2c(CCc3ccc(F)cc3)nc3c(c2-c2ccc(C(=O)NCc4ccc(F)c(F)c4)s2)C(=O)N2CCC[C@@H]32)o1 [Compound 4, (S)—N-(3,4-difluorobenzyl)-5-(2-(4-fluorophenethyl)-3-(5-methyl-1,3,4-oxadiazol-2-yl)-5-oxo-7,8,9,9a-tetrahydro-5H-pyrido[2,3-a]pyrrolizin-4-yl)thiophene-2-carboxamide]	47.5	4.5
Cc1nnc(-c2c(COc3ccc(F)cc3)nc3c(c2-c2ccc(C(=O)NCc4ccc(F)c(F)c4)s2)C(=O)N2CCC[C@@H]32)o1 [Compound 7, (S)—N-(3,4-difluorobenzyl)-5-(2-((4-fluorophenoxy)methyl)-3-(5-methyl-1,3,4-oxadiazol-2-yl)-5-oxo-7,8,9,9a-tetrahydro-5H-pyrido[2,3-a]pyrrolizin-4-yl)thiophene-2-carboxamide]	128	76
Cc1nnc(-c2c(CC(C)c3ccc(F)cc3)nc3c(c2-c2ccc(C(=O)NCc4ccc(F)c(F)c4)s2)C(=O)N2CCC[C@@H]32)o1 (stereo partly drawn) [Compound 9, N-(3,4-difluorobenzyl)-5-((9aS)-2-(2-(4-fluorophenyl)propyl)-3-(5-methyl-1,3,4-oxadiazol-2-yl)-5-oxo-7,8,9,9a-tetrahydro-5H-pyrido[2,3-a]pyrrolizin-4-yl)thiophene-2-carboxamide]	53.3	15
Cc1nnc(-c2c(CCc3ccc(F)cc3)nc3c(c2-c2ccc(C(=O)NCc4ccc(F)c(F)c4)s2)c(=O)n2n3CCC2)o1 [Compound 15, N-(3,4-difluorophenyl)methyl-5-(11-[2-(p-fluorophenyl)ethyl]-10-(5-methyl-1,3,4-oxadiazol-2-yl)-7-oxo-2,6,12-triazatricyclo[6.4.0.0^2,6]dodeca-1(12),8,10-trien-9-yl}-2-thenamide]	88.4	17
Cc1nnc(-c2c(CCc3ccc(F)cc3)nc3c(c2-c2ccc(C(=O)NCc4ccc(F)c(F)c4)s2)S(=O)(=O)N2CCC[C@@H]32)o1 [Compound 17, (S)—N-(3,4-difluorobenzyl)-5-(2-(4-fluorophenethyl)-3-(5-methyl-1,3,4-oxadiazol-2-yl)-5,5-dioxido-7,8,9,9a-tetrahydropyrrolo[1′,2′:2,3]isothiazolo[4,5-b]pyridin-4-yl)thiophene-2-carboxamide]	65.8	5.5
Cc1nnc(-c2c(CCc3ccc(F)cc3)nc3c(c2-c2ccc(C(=O)NCc4ccc(F)c(F)c4)s2)S(=O)(=O)N[C@H]3C(C)C)o1 [Compound 18, (S)—N-(3,4-difluorobenzyl)-5-(5-(4-fluorophenethyl)-3-isopropyl-6-(5-methyl-1,3,4-oxadiazol-2-yl)-1,1-dioxido-2,3-dihydroisothiazolo[4,5-b]pyridin-7-yl)thiophene-2-carboxamide]	31.1	2
Cc1nnc(-c2c(CCc3ccc(F)cc3)nc3c(c2-c2ccc(C(=O)NCc4ccc(F)c(F)c4)s2)S(=O)(=O)CC3C(C)C)o1 (stereo not shown) [Compound 19, N-(3,4-difluorobenzyl)-5-(5-(4-fluorophenethyl)-3-isopropyl-6-(5-methyl-1,3,4-oxadiazol-2-yl)-1,1-dioxido-2,3-dihydrothieno[3,2-b]pyridin-7-yl)thiophene-2-carboxamide]	25.3	5.3
Cc1nnc(-c2c(CCC3CCOCC3)nc3c(c2-c2ccc(C(=O)NCc4ccc(F)c(F)c4)s2)C(=O)N2CCC[C@@H]32)o1 [Compound 29]	128	31
Cc1nnc(-c2c(CCc3ccc(F)cc3F)nc3c(c2-c2ccc(C(=O)NCc4ccc(F)c(F)c4)s2)C(=O)N2CCC[C@@H]32)o1 [Compound 42, 5-[(9aS)-2-[2-(2,4-difluorophenyl)ethyl]-3-(5-methyl-1,3,4-oxadiazol-2-yl)-5-oxo-7,8,9,9a-tetrahydropyrido[2,3-a]pyrrolizin-4-yl]-N-[(3,4-difluorophenyl)methyl]thiophene-2-carboxamide]	114	14
Cc1nnc(-c2c(CCC3CCCOC3)nc3c(c2-c2ccc(C(=O)NCc4ccc(F)c(F)c4)s2)C(=O)N2CCC[C@@H]32)o1 (stereo partly drawn) [Compound 61, N-(3,4-difluorobenzyl)-5-((9aS)-3-(5-methyl-1,3,4-oxadiazol-2-yl)-5-oxo-2-(2-(tetrahydro-2H-pyran-3-yl)ethyl)-7,8,9,9a-tetrahydro-5H-pyrido[2,3-a]pyrrolizin-4-yl)thiophene-2-carboxamide]	178	39
Cc1nnc(-c2c(CCC3CCOCC3)nc3c(c2-c2cc4ccnc(NCc5ccc(F)c(F)c5)c4s2)C(=O)N2CCC[C@@H]32)o1 [Compound 63]	78.5	2.8
Cc1nnc(-c2c(CCC3CCOC(C)(C)C3)nc3c(c2-c2ccc(C(=O)NCc4ccc(F)c(F)c4)s2)C(=O)N2CCC[C@@H]32)o1 (stereo partly drawn) [Compound 66, N-(3,4-difluorobenzyl)-5-((9aS)-2-(2-(2,2-dimethyltetrahydro-2H-pyran-4-yl)ethyl)-3-(5-methyl-1,3,4-oxadiazol-2-yl)-5-oxo-7,8,9,9a-tetrahydro-5H-pyrido[2,3-a]pyrrolizin-4-yl)thiophene-2-carboxamide]	975	–
Cc1nnc(-c2c(CCC3CCOCC3)nc3c(c2-c2cc4ccnc(N[C@@H]5CCc6cc(F)ccc65)c4s2)C(=O)N2CCC[C@@H]32)o1 [Compound 71]	27.8	–
Cc1nnc(-c2c(CCC3CCOCC3)nc3c(c2-c2cc4ccnc(N[C@@H]5CCc6ccc(F)cc65)c4s2)C(=O)N2CCC[C@@H]32)o1 [Compound 72]	81.4	–
COc1cccc(CNc2nccc3cc(-c4c5c(nc(CCC6CCOCC6)c4-c4nnc(C)o4)[C@@H]4CCCN4C5=O)sc23)c1 [Compound 73]	2200	–
CO[C@H]1C[C@@H](Nc2nccc3cc(-c4c5c(nc(CCC6CCOCC6)c4-c4nnc(C)o4)[C@@H]4CCCN4C5=O)sc23)c2ccccc21 [Compound 74]	860	–
Cc1cnc(-c2c(CCC3CCOCC3)nc3c(c2-c2cc4ccnc(NCc5cncc(F)c5)c4s2)C(=O)N2CCC[C@@H]32)o1 [Compound 75]	360	–
CCc1nc2c(c(-c3ccc(C(=O)N[C@@H]4CCc5cc(F)ccc54)s3)c1-c1nnc(C)o1)C(=O)N1CCC[C@@H]21 [Compound 82, N—[(R)-5-fluoro-1-indanyl]-5-((2S)-11-ethyl-10-(5-methyl-1,3,4-oxadiazol-2-yl)-7-oxo-6,12-diazatricyclo[6.4.0.0^2,6]dodeca-1(8),9,11-trien-9-yl}-2-thenamide]	1810	–
COc1cccc2c1CC[C@H]2Nc1nccc2cc(-c3c4c(nc(CCC5CCOCC5)c3-c3nnc(C)o3)[C@@H]3CCCN3C4=O)sc12 [Compound 83, (2S,6R)-9-(7-[(R)-4-methoxy-1-indanylamino]-1-thia-6-aza-2-indenyl}-10-(5-methyl-1,3,4-oxadiazol-2-yl)-11-[2-(tetrahydro-2H-pyran-4-yl)ethyl]-6,12-diazatricyclo[6.4.0.0^2,6,]dodeca-1(8), 9,11-trien-7-one]	59	–
